Three molecules from patent publication US7605265B2, “Heterodimers and methods of using them” (priority 2007, dated 2009) can be followed below.

As a reminder, the IC50 is the concentration at which inhibition is half-maximal. High values mean weaker potency in that assay, low ones greater potency in that assay.

Assay [1] concerns scopolamine-induced memory impaired rats. Description: Morris water maze, scopolamine-induced memory impairment. The class given is in vivo, rat. To be noted: for spatial bias: scopolamine 0.1 mg/kg; for spatial bias (% of total distance swum in the training quadrant during spatial probe trial): memory-impaired rats, FIG. 4d-4f; for escape latency: 4 days. As to the method:
The Morris water maze consists of a water pool with a hidden, submerged escape platform. The rats must learn, over a period of consecutive days, the location of the platform using either contextual or local cues. The time taken to locate the hidden platform (escape latency) is a measure of the animal's cognitive abilities.
Scopolamine (0.1 mg/kg) was first i.p. administered to young adult rats to impair their memories. Scopolamine-induced memory impaired rats were then orally administered one of three different doses of compound B (0.025, 0.050, or 0.100 mg/kg) and subjected to the Morris water maze over a period of 4 days. On each day, the time taken for the rats to detect the hidden platform in the water maze was measured, in seconds.
Scopolamine (0.1 mg/kg) was first i.p. administered to young adult rats to impair their memories. Scopolamine-induced memory impaired rats were then orally administered one of three different doses of compound C (0.1, 0.2, or 0.4 mg/kg) and subjected to the Morris water maze over a period of 4 days. On each day, the time taken for the rats to detect the hidden platform in the water maze was measured, in seconds.
Scopolamine (0.1 mg/kg) was first i.p. administered to young adult rats to impair their memories. Scopolamine-induced memory impaired rats were then orally administered one of three different doses of compound A (0.1, 0.2, or 0.4 mg/kg) and subjected to the Morris water maze over a period of 4 days. On each day, the time taken for the rats to detect the hidden platform in the water maze was measured, in seconds.
A spatial bias (% of total distance swum in the training quadrant during spatial probe trial) for the region of the apparatus where the platform was positioned during training was also measured for compounds B and C.
The spatial bias for the region of the testing apparatus where the hidden platform was positioned during training was measured. […] Tacrine (THA) was included for comparison purposes.

A further assay relates to rat cortical neurons. Briefly: NMDA survival assay (LDH release) in cortical neurons. The class given is cell-based. To be noted: DIV11 rat cortical neurons, NMDA 20 μM, compound 0.001-10 μg/mL, LDH at 24 hr; FIG. 3. As to the method: The compounds were subjected to NMDA survival assays to investigate their ability to prevent NMDA receptor-induced excitotoxicity. The NMDA survival assay was performed to measure the degree of protection provided to cortical neuronal cells when treated with the compounds prior to an ischemic insult.
DIV10 cortical neurons were treated with NMDA (20 μM) in the presence of compound (cpd) B or C (μg/mL). LDH release in the medium was detected at 24 hr after treatment. DMSO was used as the solvent control, while MK-801 (10 μM) is a known NMDA antagonist.
DIV11 rat cortical neurons were treated with NMDA (20 μM) in the absence or presence of compounds (MK-801, 10 μM; compound A, 0.001-10 μg/mL). LDH release in the medium was detected at 24 hr after treatment. DMSO was used as the solvent control.

In assay [2] the target is T1, butyrylcholinesterase (BChE) (Rattus norvegicus, UniProt Q9JKC1).
T1 construct: from tissue; host or cells: rat serum
Briefly: biochemical.

T1 sequence (Q9JKC1 24-597): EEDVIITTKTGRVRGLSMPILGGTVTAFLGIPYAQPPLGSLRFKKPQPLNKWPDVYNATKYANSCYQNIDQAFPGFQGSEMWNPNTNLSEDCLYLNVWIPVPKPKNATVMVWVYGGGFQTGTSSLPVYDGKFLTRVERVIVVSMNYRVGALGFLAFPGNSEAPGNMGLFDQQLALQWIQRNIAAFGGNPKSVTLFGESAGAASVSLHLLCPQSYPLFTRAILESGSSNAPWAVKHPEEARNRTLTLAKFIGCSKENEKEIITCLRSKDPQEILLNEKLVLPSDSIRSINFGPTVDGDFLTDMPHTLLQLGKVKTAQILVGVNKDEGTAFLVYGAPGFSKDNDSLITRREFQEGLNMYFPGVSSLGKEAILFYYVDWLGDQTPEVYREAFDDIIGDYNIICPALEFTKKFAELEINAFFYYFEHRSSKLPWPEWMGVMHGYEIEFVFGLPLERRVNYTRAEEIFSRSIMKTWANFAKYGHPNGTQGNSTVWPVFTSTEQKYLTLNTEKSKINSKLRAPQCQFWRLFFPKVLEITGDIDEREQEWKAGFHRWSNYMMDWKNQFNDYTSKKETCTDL

On to `O=c1ccc2c([nH]1)CCC(NCCCNc1c3c(nc4cc(Cl)ccc14)CCCC3)C2` (centres unmarked) [Compound A], for which, in assay [1] (0.2 and 0.4 mg/kg orally, scopolamine 0.1 mg/kg i.p., FIG. 4c), the “scopolamine-induced performance deficits (escape latency)” value is recorded as “significantly reversed scopolamine-induced performance deficits”. In addition, the spatial bias result in assay [1] (0.2 and 0.4 mg/kg, FIG. 4e, 4f) is “spatial bias close to control levels”. The “spatial bias (% of total distance swum in the training quadrant during spatial probe trial)” value in assay [1] is recorded as “significantly increased spatial bias”. The “protection against NMDA insults (LDH release)” value in the assay with rat cortical neurons is “capable of protecting cortical neurons against NMDA insults”. Moreover, in assay [2], the IC50 amounted to 56.7 ± 25 nM.

Regarding `O=c1ccc2c([nH]1)CCCC2NCCCCCCCNc1c2c(nc3cc(Cl)ccc13)CCCC2` (centres unmarked) [Compound B], the escape latency entry in assay [1] (0.1 mg/kg orally, scopolamine 0.1 mg/kg i.p., FIG. 4a) is given as “reversed the increased escape latency induced by scopolamine”. In addition, the spatial bias entry in assay [1] (0.05 and 0.1 mg/kg p.o., FIG. 4d) was “spatial bias close to control levels”. Also, the “spatial bias (% of total distance swum in the training quadrant during spatial probe trial)” value in assay [1] is reported as “significantly increased spatial bias”. In assay [2], this molecule showed an IC50 of 31.1 ± 1.96 nM.

For `O=c1ccc2c([nH]1)CCCC2NCCCCCCCCNc1c2c(nc3cc(Cl)ccc13)CCCC2` (centres unmarked) [Compound C], in assay [1] (0.2 mg/kg and 0.4 mg/kg vs 1.5 mg/kg tacrine (THA)), the “escape latency, compared with tacrine” value is on record as “more effective that 1.5 mg/kg tacrine”. Further, the escape latency entry in assay [1] (0.4 mg/kg orally, scopolamine 0.1 mg/kg i.p., FIG. 4b) was “significantly reversed the increased escape latency induced by scopolamine”. Further, the spatial bias result in assay [1] (0.2 and 0.4 mg/kg, FIG. 4e, 4f) was “spatial bias close to control levels”. Moreover, in assay [1], the “spatial bias (% of total distance swum in the training quadrant during spatial probe trial)” value was “significantly increased spatial bias”. For the same molecule, the IC50 in assay [2] worked out at 638 ± 122 nM.
